Earlier results, collected in patent US20140127179A1, “Natural Killer Cell Formulations” (SCIENTIFIC FORMULATIONS, LLC, priority 2012, published 2014).
Like-named read-outs stand apart in the source and are kept apart here.

Experiments:
[1] = test system: Human promyelocytic leukemia cells HL60; settings: HL60 cultured with 30 nM for three years, injected into nu/nu mice
[2] = test system: Natural Killer cells (NKC); design: key: +: Increased NK cell activity was shown; ±: mixed results; settings: summary of literature studies
3T3-SV40 fibroblasts = settings: for fibroblast sensitivity to lytic activity of NKC: in several hours, NAC 10 mM
metastases = settings: NAC administered with haemin and IL-2
NK cell activity [3] = settings: combinations of 1 mM thioproline and NAC, 5 μM Vitamin C and vitamin E; all ages studied
[4] = test system: transformed and embryonic cells
cancer cells = test system: cancer cells; design: key: +: Direct Anti-cancer Activity was shown; settings: direct anti-cancer activity, summary of literature studies
[5] = 42 men, 300 μg of Se
[6] = doses up to 5,000 mg
tumor cells = settings: inhibited platelet aggregation
[7] = test system: interferon-gamma-producing NK cell; settings: nutritional intake of 10 mg
[8] = test system: NK cell activity of peripheral mononuclear cells
NK cell activity [9] = settings: 7 days after the drug injection
[10] = test system: lymphokine-activated killer (LAK) cell; settings: PPS, MPS and LEN, the three combined; P<0.01
[11] = test system: NK cell and ADCC activity; settings: CLL patients, from 0.01 to 1 microgram/ml
NK cell function = settings: two weeks of high-dose treatment, cancer patients

## C=C1/C(=C\C=C2/CCC[C@]3(C)[C@@H]([C@H](C)CCCC(C)(C)O)CC[C@@H]23)C[C@@H](O)C[C@@H]1O [1,25 D3, 1,25-dihydroxyvitamin D3]
[1]
  tumor growth: reduced rate of tumor growth

## O=C(O)CCCCC1CCSS1 (stereo not drawn) [ALA, Alpha-Lipoic Acid]
[2]
  NKC Activity: ±
3T3-SV40 fibroblasts
  fibroblast sensitivity to lytic activity of NKC: reduced significantly

## COc1cc(/C=C/C(=O)CC(=O)/C=C/c2ccc(O)c(OC)c2)ccc1O [Curcumin]
[2]
  NKC Activity: +

## O=c1c(-c2ccc(O)cc2)coc2cc(O)cc(O)c12 [Geinstein, Genistein]
[2]
  NKC Activity: +

## CC(C)=CCC[C@](C)(O)[C@H]1CC[C@]2(C)[C@@H]1[C@H](O)C[C@@H]1[C@@]3(C)CC[C@H](O[C@@H]4O[C@H](CO)[C@@H](O)[C@H](O)[C@H]4O)C(C)(C)[C@@H]3CC[C@]12C [Ginsenoside Rh2]
B16 melanoma cells; mouse, in vivo
  growth of B16 melanoma cells: inhibits
B16 melanoma cells; tumor-bearing nude mice
  NK cell activity in spleen cells: increases

## CC(=O)N[C@@H](CS)C(=O)O [NAC, N-Acetyl-Cysteine]
metastases
  decrease in metastases: 63%
NK cell activity [3]
  NK cell activity: enhancement
[4]; 10 mM
  susceptibility of transformed and embryonic cells to NK cell activity: loss of susceptibility
[4]; pretreated with 10 mM
  susceptibility of murine embryonic fibroblasts (MEFs) to NK cell activity: lose their susceptibility
[2]
  NKC Activity: +
3T3-SV40 fibroblasts; 18-20 h after NAC removal
  response to NK cell activity after removal of the antioxidant: resistance to NK cell activity
3T3-SV40 fibroblasts; 18-20 h cultivation, 10 mM
  sensitivity to lysis by NKC mouse splenocytes: did not change their sensitivity
3T3-SV40 fibroblasts
  fibroblast sensitivity to lytic activity of NKC: did not change it

## Oc1ccc(C=Cc2cc(O)cc(O)c2)cc1 [Resveratrol]
Cancer cells
  Anti-Cancer: +
[2]
  NKC Activity: +

## [Se] [Selenium]
Cancer cells
  Anti-Cancer: +
[2]
  NKC Activity: +
[5]
  counts of NKC and T lymphocytes expressing both sub-units of IL2R: increased counts

## O=C1O[C@H]([C@@H](O)CO)C(O)=C1O [Vitamin C, Ascorbic acid]
NK cell activity [3]
  NK cell activity: enhancement
[6]
  mutagenic lesions; negative effects on NK cell activity, apoptosis or cell cycle: did not induce mutagenic lesions nor had negative effects
end-stage cancers; 16 survivors, p<0.01
  NKC function of survivors versus baseline: significantly higher
end-stage cancers; as of a mean of 6 months
  patients still alive: 16/20
Cancer cells
  Anti-Cancer: +
[2]
  NKC Activity: +
Tumor cells
  increase of NK cell cytotoxicity: 285%

## C=C1CC[C@H](O)C/C1=C/C=C1\CCC[C@]2(C)[C@@H]([C@H](C)CCCC(C)C)CC[C@@H]12 [Vitamin D3]
Cancer cells
  Anti-Cancer: +
[2]
  NKC Activity: +

## [Zn] [Zinc]
[7]
  quantity of interferon-gamma-producing NK cell: increases
Cancer cells
  Anti-Cancer: +
[2]
  NKC Activity: +

## O=C(O)[C@@H]1CSCN1 [thioproline]
NK cell activity [3]
  NK cell activity: enhancement

## Lentinan
[8]; cancer patients, 12 h following administration
  interferon level in the peripheral blood circulation: elevated
[8]; cancer patients, in 48 h
  NK cell activity of peripheral mononuclear cells: enhanced
[8]; n=11, i.v. 2 mg, on the following day
  patients with increased NK cell activity of lymphocytes: four
NK cell activity [9]
  NK cell activity: significantly enhanced
Cancer cells
  Anti-Cancer: +
[2]
  NKC Activity: +
[10]
  reduction of the dose of rIL-2 needed to have the same LAK activity: 50%
[11]
  enhancement of NK cell and ADCC activity: dose-related increase

## Vitamin E
NK cell function
  NK cell function: enhanced
NK cell activity [3]
  NK cell activity: enhancement
Cancer cells
  Anti-Cancer: +
[2]
  NKC Activity: +
